Key:
[1] = test system: wild rice (Oryza sativa), Echinochloa crus-galli and Leptochloa chinensis; test: Example 1: damage to undesirable grasses after clodinafop application; format: in vivo; conditions: clodinafop 60 g/ha
Method: (§1) 500 g of rice seed material are soaked in water in a plastic dish for 24 hours. After the water has been poured off, the seed material is allowed to dry in air for 1 to 2 hours; 0.025 or 0.25 g of safener of formula (I) or (II) is then added and vigorous shaking is carried out. Sowing is performed 24 hours later.
(§2) 5 days after sowing, the herbicide clodinafop in the form of an EC 100 is applied at a rate of application of 60 g/ha. 5, 10 and 15 days afterwards, the damage to the rice plants that have emerged and to the weeds is determined.

cultivated rice = test: Example 2: damage to cultivated rice with or without safener seed dressing after clodinafop application; format: in vivo, Oryza sativa; conditions: for Damage to rice (%) after number of days 5: 5 days; for Damage to rice (%) after number of days 10: 10 days; for Damage to rice (%) after number of days 15: 15 days
Method: as §1
as §2, with “60 or 120” for “60”, “determined. For comparison, untreated cultivated rice is tested under the same conditions as an indicator of the behaviour of wild rice.” for “determined.”

rice plants = test: Example 1: damage to directly sown rice from safener-dressed seed after clodinafop application; format: in vivo, Oryza sativa; conditions: for Damage to rice (%) after number of days 5: 5 days after application; for Damage to rice (%) after number of days 10: 10 days after application; for Damage to rice (%) after number of days 15: 15 days after application
Method: as §1, §2

[2] = cultivated rice without safener (indicator for wild rice), clodinafop 60 g/ha
[3] = cultivated rice without safener (indicator for wild rice), clodinafop 120 g/ha
[4] = no safener, clodinafop EC 100 60 g/ha applied 5 days after sowing
[5] = rice seed dressed with safener 0.025 g per 500 g
[6] = rice seed dressed with safener 0.25 g per 500 g
[7] = cultivated rice with 0.025 g of safener (per 500 g seed), clodinafop 60 g/ha
[8] = cultivated rice with 0.025 g of safener (per 500 g seed), clodinafop 120 g/ha
[9] = cultivated rice with 0.25 g of safener (per 500 g seed), clodinafop 60 g/ha
[10] = cultivated rice with 0.25 g of safener (per 500 g seed), clodinafop 120 g/ha
[11] = safener 0.025 g per 500 g of seed material, clodinafop 60 g/ha
[12] = safener 0.25 g per 500 g of seed material, clodinafop 60 g/ha

Compound: C[C@@H](Oc1ccc(Oc2ncc(Cl)cc2F)cc1)C(=O)O [Clodinafop, clodinafop, reference compound]
- Damage to undesirable grasses* (%) ([1]; no safener): 93%
- Damage to rice (%) after number of days 5 (cultivated rice; [2]): 40%
- Damage to rice (%) after number of days 10 (cultivated rice; [2]): 90%
- Damage to rice (%) after number of days 15 (cultivated rice; [2]): 65%
- Damage to rice (%) after number of days 5 (cultivated rice; [3]): 78%
- Damage to rice (%) after number of days 10 (cultivated rice; [3]): 98%
- Damage to rice (%) after number of days 15 (cultivated rice; [3]): 100%
- Damage to rice (%) after number of days 5 (rice plants; [4]): 68%
- Damage to rice (%) after number of days 10 (rice plants; [4]): 65%
- Damage to rice (%) after number of days 15 (rice plants; [4]): 30%

Compound: COC(=O)c1sccc1NS(=O)(=O)c1nc2nc(C)cc(C)n2n1 [Formula II]
- Damage to undesirable grasses* (%) [1, 5]: 98%
- Damage to undesirable grasses* (%) [1, 6]: 99%
- Damage to rice (%) after number of days 5 (cultivated rice; [7]): 18%
- Damage to rice (%) after number of days 10 (cultivated rice; [7]): 8%
- Damage to rice (%) after number of days 15 (cultivated rice; [7]): 0%
- Damage to rice (%) after number of days 5 (cultivated rice; [8]): 23%
- Damage to rice (%) after number of days 10 (cultivated rice; [8]): 15%
- Damage to rice (%) after number of days 15 (cultivated rice; [8]): 8%
- Damage to rice (%) after number of days 5 (cultivated rice; [9]): 13%
- Damage to rice (%) after number of days 10 (cultivated rice; [9]): 9%
- Damage to rice (%) after number of days 15 (cultivated rice; [9]): 0%
- Damage to rice (%) after number of days 5 (cultivated rice; [10]): 25%
- Damage to rice (%) after number of days 10 (cultivated rice; [10]): 16%
- Damage to rice (%) after number of days 15 (cultivated rice; [10]): 5%
- Damage to rice (%) after number of days 5 (rice plants; [11]): 21%
- Damage to rice (%) after number of days 10 (rice plants; [11]): 9%
- Damage to rice (%) after number of days 15 (rice plants; [11]): 0%
- Damage to rice (%) after number of days 5 (rice plants; [12]): 5%
- Damage to rice (%) after number of days 10 (rice plants; [12]): 3%
- Damage to rice (%) after number of days 15 (rice plants; [12]): 0%

Compound: CNC(=O)Nc1ccc(S(=O)(=O)NC(=O)c2ccccc2OC)cc1 [Formula I]
- Damage to undesirable grasses* (%) [1, 5]: 100%
- Damage to undesirable grasses* (%) [1, 6]: 98%
- Damage to rice (%) after number of days 5 (rice plants; [11]): 5%
- Damage to rice (%) after number of days 10 (rice plants; [11]): 0%
- Damage to rice (%) after number of days 15 (rice plants; [11]): 0%
- Damage to rice (%) after number of days 5 (rice plants; [12]): 4%
- Damage to rice (%) after number of days 10 (rice plants; [12]): 3%
- Damage to rice (%) after number of days 15 (rice plants; [12]): 0%

Reference: patent publication US20100304967A1, “METHOD OF PROTECTING RICE CROPS” (SYNGENTA CROP PROTECTION, INC., priority 2007, published 2010)
